The values that follow are results of earlier work, collected in patent US20230233522A1, “COMPOSITIONS AND METHODS FOR TREATING EPILEPSY, SEIZURES AND OTHER CONDITIONS” (TULEX PHARMACEUTICALS INC., priority 2019, published 2023).

As for `CC1(C)O[C@@H]2[C@@H](CO[C@@]3(COS(N)(=O)=O)OC(C)(C)O[C@@H]23)O1` [Topiramate, 2,3:4,5-Di-O-isopropylidine-β-D-fructopyranose sulfamate], the solubility in water result is listed as “about 9.8 mg/ml”.
